Test results reported in patent publication US9345682B2, “Inhibition of STAT3 signal transduction for human cancer therapy” (University of South Florida, priority 1999, dated 2016).

Experiments:
MDA-MB-468 cells = assay: Cell growth of MDA-MB-468 breast carcinoma cells; type: cell-based, human
Procedure: FIG. 6: Src and JAK Inhibitors Block Growth and STAT3 Activation in Breast Carcinoma Cells. MDA-MD-468 cells are treated with inhibitors of EGF receptor (PD158780), Src (PD180970), or JAKs (AG490), and effects on cell growth (Panel A) and STAT3 DNA-binding activity (Panel B) are determined.
The involvement of these, and other, tyrosine kinases in STAT3 activation is tested using specific inhibitors of JAK family kinases, and the EGF receptor and Src family kinases.

peritoneal macrophages [1] = assay: Cytostatic activity of peritoneal macrophages against J558 myeloma cells; parameters: species or system mice; conditions: daily i.p. in vivo treatment
Procedure: Peritoneal macrophage preparation and cytostatic test. […] The peritoneal macrophage population is enriched by adhesion on plastic plates followed by washing and aspiration of non-adherent cells. The percentage of macrophages among adherent cells is estimated by morphological criteria using Giemsa staining (>95%). Antitumor cytostatic activity of macrophages is determined by inhibition of DNA synthesis of target tumor cells (J558 myeloma cells). Briefly, macrophage-sensitive J558 cells (2×10^4/well) are co-cultured for 48 hours with and without macrophages (2×10^5/well) prepared from individual mice. To estimate DNA synthesis, the cells are pulsed with ^3H-thymidine (^3H-TdR) ([…]) during the last 6 hours of incubation. ^3H-TdR incorporation is determined using a liquid scintillation b-counter (Pharmacia Wallac, Finland). Results are expressed as percentage of inhibition of ^3H-TdR incorporation by J558 cells incubated with macrophages compared to ^3H-TdR incorporation by J558 cells incubated in medium alone.

8226 cells = assay: Fas-mediated apoptosis (Annexin V, flow cytometry) in 8226 cells; type: cell-based, human; conditions: IL-6-independent 8226 cells, AG490 treatment
Procedure: For surface detection of the Fas receptor, 10^6 cells are suspended in […] PBS with 2.5 mg/ml mouse IgM (Sigma) and […] UB2 antibody (MBL) or IgG1, isotype control serum (Dako). Following 30 min incubation at room temperature, cells are washed with PBS, and incubated in the dark for 30 min with goat anti-mouse Ig-FITC. Fluorescence is measured on a FACScan flow cytometer and analyzed using CellQuest software (Becton Dickinson). For cell cycle analysis, 10^6 cells are fixed in ice-cold ethanol for a minimum of 2 h, washed with PBS, and stained with 5 mg/ml propidium iodide (PI) and […] at 37° C. for 30 min prior to analysis by flow cytometry. Sensitivity to Fas-mediated apoptosis is determined by exposing cells to 500 ng/ml agonistic antibody (CH-11, MBL) or 100 ng/ml Fas ligand (Alexis) for 18-24 h. Apoptosis is measured by staining with Annexin V-FITC (Clontech) and flow cytometry analysis. Fas-specific death is calculated as (% Annexin V positive cells in the CH-11 treated population)−(% Annexin V positive cells in the IgM control population). Programmed cell death in cells transfected with the bicistronic green fluorescent protein vectors (pIRES-EGFP or pIRES-Stat3b) is analyzed after staining with Annexin V-PE (Pharmingen) by two color flow cytometry analysis. […]

U266 cells = assay: Fas-mediated apoptosis (Annexin V, flow cytometry) in U266 cells; type: cell-based, human
Procedure: For surface detection of the Fas receptor, 10^6 cells are suspended in […] PBS with 2.5 mg/ml mouse IgM (Sigma) and […] UB2 antibody (MBL) or IgG1, isotype control serum (Dako). Following 30 min incubation at room temperature, cells are washed with PBS, and incubated in the dark for 30 min with goat anti-mouse Ig-FITC. Fluorescence is measured on a FACScan flow cytometer and analyzed using CellQuest software (Becton Dickinson). For cell cycle analysis, 10^6 cells are fixed in ice-cold ethanol for a minimum of 2 h, washed with PBS, and stained with 5 mg/ml propidium iodide (PI) and […] at 37° C. for 30 min prior to analysis by flow cytometry. […] Apoptosis is measured by staining with Annexin V-FITC (Clontech) and flow cytometry analysis. Fas-specific death is calculated as (% Annexin V positive cells in the CH-11 treated population)−(% Annexin V positive cells in the IgM control population). Programmed cell death in cells transfected with the bicistronic green fluorescent protein vectors (pIRES-EGFP or pIRES-Stat3b) is analyzed after staining with Annexin V-PE (Pharmingen) by two color flow cytometry analysis. Apoptotic morphology of DAPI-stained nuclei and green/red fluorescence is confirmed by fluorescence microscopy.

peritoneal macrophages [2] = assay: IL-12-mediated nitric oxide production by macrophages treated in vitro; type: cell-based, mice; conditions: in vitro treatment of macrophages, 50 mM AG-490
Procedure: Nitric oxide production. Peritoneal macrophages (2×10^5/0.2 ml/well) from mice with various treatments are incubated 48 hours. Nitrite accumulation in macrophage supernatants were determined using Griess reagent.
In vitro IL-12 activation and AG-490 treatment of macrophages. Peritoneal macrophages (2×10^5/well) are incubated in medium supplemented with either PBS, or rIL-12 (2 ng/ml), or AG-490 ([…]). Forty-eight hours later, the cultures are renewed by addition of fresh medium with either AG-490 or rIL-12 or PBS. Activation of macrophages is determined by nitric oxide production. Macrophage viability is determined by cleavage of tetrazolium salt in an MTT assay.

N#C/C(=C\c1ccc(O)c(O)c1)C(=O)NCc1ccccc1 [AG490]
cell growth (MDA-MB-468 cells): inhibition of cell growth
IL-12-induced cytostatic activity of peritoneal macrophages against target tumor cells (peritoneal macrophages [1]): does not influence
sensitivity to Fas-mediated cell death (8226 cells): does not enhance
Fas-specific apoptosis (U266 cells; AG490 24 hours then CH-11 12 hours, 7 independent experiments): 18-41%
cells undergoing apoptosis (U266 cells; AG490 24 hours then CH-11 additional 12 hours): up to 90%
IL-12-mediated nitric oxide production (peritoneal macrophages [2]): prevents or suppressed
